According to patent US6376430B1, “Enhancement of seed yield of soybeans by a substituted benzoyl urea” (Uniroyal Chemical Company, Inc., priority 1997, dated 2002):

Legend:
[1] = system: determinate soybeans; assay: Field applications on determinate soybeans (29 site data base), seed yield; format: in vivo, soybean; settings: for determinate soybean yields: Diflubenzuron 0.035 kg/ha, BENLATE 0.56 to 0.84 kg/ha, applied from R2 through R5 growth stages, untreated control 2190 kg/ha; for yield increase over the untreated control: one or two field applications of Diflubenzuron at 0.034 kg ai/ha, 29 sites, determinate soybeans
From the text: In this invention, Diflubenzuron is typically sprayed during the period from R2 through R5 for controlling foliar feeding insects. In the States of Mississippi, Florida, Tennessee, Illinois, Arkansas, Louisiana, and Texas results have been compiled where one or two field applications of Diflubenzuron at 0.034 kg ai/ha (0.031 lb ai/acre) were applied to control insects on the determinate soybeans planted. A fungicide, Benomyl, methyl-1-(butylcarbamoyl)-2-benzamidazolecarbamate [CAS 17804-35-2], available as BENLATE™ from DuPont deNemour, Wilmington, Del., was also applied alone or in combination with Diflubenzuron for fungal pathogen control.

[2] = system: indeterminate soybeans; assay: Field applications on northern indeterminate soybean varieties (25 sites), seed yield, pod counts, seed size; format: in vivo
From the text: Diflubenzuron alone gave a 376 kg/ha (5.6 bu/acre) increase over the untreated control; the addition of Benomyl (methyl-1-(butylcarbamoyl)-2-benzamidazolecarbamate) only conferred another 0.5 bushel increase. There were no reported foliar feeding insect infestations of significance in any of the trials.
This is a similar % increase to the increased seed yields found in Table 3. […] Thus Diflubenzuron may be more consistent than TIBA in generating soybean seed yield increases since Diflubenzuron is not visually altering the carbon fixation pool of the plant.

[3] = system: soybean; settings: cited from earlier work

Row | SMILES | determinate soybean yields [1] | yield increase over the untreated control [1] | visual alteration of the soybean plant canopy ([2]; any research trial) | seed size variation across varieties ([2]; no correlation to application time of Diflubenzuron) | pod counts from plants, higher in relation to the untreated control ([2]; preliminary results, indeterminate soybean trials) | total seed number per plant ([3]; literature (Bauer et al., 1969; Burton and Curley, 1966; Hicks et al., 1967)) | seed yield ([3]; literature, smaller seeds were formed)
1 | CCCCNC(=O)n1c(NC(=O)OC)nc2ccccc21 [Benomyl, methyl-1-(butylcarbamoyl)-2-benzamidazolecarbamate] | 2439 kg/ha | 3.7 bushels/acre |  |  |  |  | 
2 | O=C(NC(=O)c1c(F)cccc1F)Nc1ccc(Cl)cc1 [Diflubenzuron, N-(2,6-difluorobenzoyl)-N′-(4-chlorophenyl)urea] | 2378 kg/ha | 2.8 bushels/acre | has not been noted | ~2% | approximately 16% |  | 
3 | O=C(O)c1cc(I)cc(I)c1I [TIBA, 2,3,5-triiodobenzoic acid] |  |  |  |  |  | increase | no corresponding increase
